Measured values: PMC11995724, “Antibiotic target discovery by integrated phenotypic and activity-based profiling of electrophilic fragments” (Cell chemical biology, 2025)
Counter-ions that a name gives are not always drawn.

experiment: in vitro; conditions: human, hek293t cells

Compound | viability at 48 h, 25 µM [%]
C=CC(=O)NC1c2cccc(F)c2CCC1C (stereo not drawn) [1-B21, N-(5-fluoro-2-methyl-1,2,3,4-tetrahydronaphthalen-1-yl)prop-2-enamide] | 92.8
N#CC(=Cc1cccc(Cl)c1Cl)C(=O)NCc1ccccc1 [8-L04, N-benzyl-2-cyano-3-(2,3-dichlorophenyl)prop-2-enamide] | 13.2
O=C(CCl)Nc1cc(Cl)ccc1Oc1ccccc1 [5-G19, 2-chloro-N-(5-chloro-2-phenoxyphenyl)acetamide] | 0.676
Cc1nc(-c2cccc(NC(=O)CCl)c2)cs1 [5-K17, 2-chloro-N-[3-(2-methyl-1,3-thiazol-4-yl)phenyl]acetamide] | 13.2
CC(C)NC(=O)C(C#N)=Cc1c(Cl)nc2ccccn12 [9-A11, 3-{2-chloroimidazo[1,2-a]pyridin-3-yl}-2-cyano-N-(propan-2-yl)prop-2-enamide] | 112
CC(Cl)C(=O)N1CCN(c2cc(-c3ccccc3F)n[nH]2)CC1 (stereo not drawn) [6-N20, 2-chloro-1-{4-[3-(2-fluorophenyl)-1H-pyrazol-5-yl]piperazin-1-yl}propan-1-one] | 86.2
C=CC(=O)NCc1cc(Cl)c2c(c1)OCCO2 [1-L05, N-[(8-chloro-2,3-dihydro-1,4-benzodioxin-6-yl)methyl]prop-2-enamide] | 112
N#CC(=Cc1cccc2c1OCCCO2)C(=O)NCc1ccccc1 [9-G05, N-benzyl-2-cyano-3-(3,4-dihydro-2H-1,5-benzodioxepin-6-yl)prop-2-enamide] | 114
Cc1ccc(C(=O)C(C)Cl)cc1C (stereo not drawn) [10-B20, 2-chloro-1-(3,4-dimethylphenyl)propan-1-one] | 85
C=CC(=O)N(C)c1ccccc1C(=O)NC [2-O18, N-methyl-2-(N-methylprop-2-enamido)benzamide] | 114
CC(C)c1ccc(CN(C(=O)CCl)C2CC2)cc1 [6-K18, 2-chloro-N-cyclopropyl-N-{[4-(propan-2-yl)phenyl]methyl}acetamide] | 1.65
CCN(CC)S(=O)(=O)c1ccc(NC(=O)CCl)cc1 [4-K07, 2-chloro-N-[4-(diethylsulfamoyl)phenyl]acetamide] | 0.364
CC(Cl)C(=O)N1CCCCCC1c1noc(-c2cnn(C)c2)n1 (stereo not drawn) [7-C05, 2-chloro-1-{2-[5-(1-methyl-1H-pyrazol-4-yl)-1,2,4-oxadiazol-3-yl]azepan-1-yl}propan-1-one] | 92.8
C=CC(=O)N1CCCC(n2ccnn2)C1 (stereo not drawn) [1-D09, 1-[3-(1H-1,2,3-triazol-1-yl)piperidin-1-yl]prop-2-en-1-one] | 93.6
C=CC(=O)N(C)C1CS(=O)(=O)C1 [1-E03, N-(1,1-dioxo-1lambda6-thietan-3-yl)-N-methylprop-2-enamide] | 86.3
N#CC(=Cc1ccc2ccccc2c1)C(=O)NCc1ccccc1 [9-N11, N-benzyl-2-cyano-3-(naphthalen-2-yl)prop-2-enamide] | 123
C=CC(=O)NC(C)Cn1cc(C(=O)O)cn1 (stereo not drawn) [3-D10, 1-[2-(prop-2-enamido)propyl]-1H-pyrazole-4-carboxylic acid] | 96
C=CC(=O)NCCN1C(=O)COc2ccccc21 [2-P07, N-[2-(3-oxo-3,4-dihydro-2H-1,4-benzoxazin-4-yl)ethyl]prop-2-enamide] | 60.4
N#Cc1cccc2c1CC[C@H]2NC(=O)CCl [7-D06, 2-chloro-N-[(1R)-4-cyano-2,3-dihydro-1H-inden-1-yl]acetamide] | 0.673
Cn1ccnc1Sc1ccc(C=C(C#N)C(N)=O)cc1[N+](=O)[O-] [8-D03, 2-cyano-3-{4-[(1-methyl-1H-imidazol-2-yl)sulfanyl]-3-nitrophenyl}prop-2-enamide] | 135
C=CC(=O)Nc1ccnn1CC1CC1 [3-G09, N-[1-(cyclopropylmethyl)-1H-pyrazol-5-yl]prop-2-enamide] | 41.5
C=CCNC(=O)C(C#N)=Cc1cccc(O)c1 [9-B09, 2-cyano-3-(3-hydroxyphenyl)-N-(prop-2-en-1-yl)prop-2-enamide] | 113
C=CC(=O)N1CCC(C(=O)Nc2ncc(CCO)s2)CC1 [2-A08, N-[5-(2-hydroxyethyl)-1,3-thiazol-2-yl]-1-(prop-2-enoyl)piperidine-4-carboxamide] | 79.1
CC(Cl)C(=O)Nc1ccccc1-c1ccccc1 (stereo not drawn) [4-G14, N-{[1,1'-biphenyl]-2-yl}-2-chloropropanamide] | 69.4
CC(=O)c1ccccc1NC(=O)C(C)Cl (stereo not drawn) [5-O19, N-(2-acetylphenyl)-2-chloropropanamide] | 90.1
O=C(CCl)NC1CCN(c2ccncc2)CC1 [5-P09, 2-chloro-N-[1-(pyridin-4-yl)piperidin-4-yl]acetamide hydrochloride] | 48.1
Cc1nc(C)c(C(=O)CCl)o1 [10-N08, 2-chloro-1-(2,4-dimethyl-1,3-oxazol-5-yl)ethan-1-one] | 76.1

Compound | viability at 48 h, 25 µM [%]
CC(C)c1ccc(-c2cc(NC(=O)CCl)n(-c3ccccc3)n2)cc1 [4-C16, 2-chloro-N-{1-phenyl-3-[4-(propan-2-yl)phenyl]-1H-pyrazol-5-yl}acetamide] | -0.013
C=CC(=O)NC1COCC1C (stereo not drawn) [1-D06, N-(4-methyloxolan-3-yl)prop-2-enamide] | 77.2
C=CC(=O)N1CCC(C(=O)N2CC=CCC2)(c2ccccc2)CC1 [3-J06, 1-[4-phenyl-4-(1,2,3,6-tetrahydropyridine-1-carbonyl)piperidin-1-yl]prop-2-en-1-one] | 61.7
CCCCNC(=O)C(C#N)=Cc1ccc(C)s1 [9-J06, N-butyl-2-cyano-3-(5-methylthiophen-2-yl)prop-2-enamide] | 94.4
Cc1nc2n(n1)CCCC2NC(=O)CCl (stereo not drawn) [7-F12, 2-chloro-N-{2-methyl-5H,6H,7H,8H-[1,2,4]triazolo[1,5-a]pyridin-8-yl}acetamide] | 58.1
COc1ccccc1CN1C(=O)C=CC1=O [10-P21, 1-[(2-methoxyphenyl)methyl]-2,5-dihydro-1H-pyrrole-2,5-dione] | 105
CC(Cl)C(=O)N1CCCN2c3ccccc3CC2C1 (stereo not drawn) [7-G06, 1-{1H,2H,3H,4H,5H,11H,11aH-[1,4]diazepino[1,2-a]indol-2-yl}-2-chloropropan-1-one] | 96.3
CC(C)OC(=O)c1ccc(NC(=O)C(C)Cl)cc1 (stereo not drawn) [4-K08, propan-2-yl 4-(2-chloropropanamido)benzoate] | 76.3
C=CC(=O)NCc1nc(-c2ccccc2)oc1C [3-C05, N-[(5-methyl-2-phenyl-1,3-oxazol-4-yl)methyl]prop-2-enamide] | 50.4
COc1cccc(NC(=O)C(C#N)=Cc2csnn2)c1 [8-K04, 2-cyano-N-(3-methoxyphenyl)-3-(1,2,3-thiadiazol-4-yl)prop-2-enamide] | 80.5
C=CC(=O)N(Cc1cn(CC)nc1C)C1CC1 [2-D13, N-cyclopropyl-N-[(1-ethyl-3-methyl-1H-pyrazol-4-yl)methyl]prop-2-enamide] | 76.3
C=CC(=O)Nc1cc(SCc2ccccc2C)ncn1 [1-F08, N-(6-{[(2-methylphenyl)methyl]sulfanyl}pyrimidin-4-yl)prop-2-enamide] | 0.816
CCOC(=O)c1c(NC(=O)CCl)sc(C)c1C [4-O15, ethyl 2-(2-chloroacetamido)-4,5-dimethylthiophene-3-carboxylate] | 57
C=CC(=O)NCC(=O)Nc1ccc2c[nH]nc2c1 [1-L11, N-{[(2H-indazol-6-yl)carbamoyl]methyl}prop-2-enamide] | 89.7
C=CC(=O)NC(c1nc(C)cs1)C1CC1 (stereo not drawn) [3-D21, N-[cyclopropyl(4-methyl-1,3-thiazol-2-yl)methyl]prop-2-enamide] | 74.9
C=CC(=O)N(C)CC(=O)N1CCC(C)(c2nc(C)no2)CC1 [2-B22, N-methyl-N-{2-[4-methyl-4-(3-methyl-1,2,4-oxadiazol-5-yl)piperidin-1-yl]-2-oxoethyl}prop-2-enamide] | 57.9
Cc1ccc(NC(=O)C(C)Cl)cc1 (stereo not drawn) [4-J15, 2-chloro-N-(4-methylphenyl)propanamide] | 92.1
C=CCNC(=O)C(C#N)=Cc1cccc(C)c1 [8-D05, 2-cyano-3-(3-methylphenyl)-N-(prop-2-en-1-yl)prop-2-enamide] | 102
CC(Cl)C(=O)N[C@H]1CCC(=O)N[C@@H]1c1ccnn1C (mixture of isomers) [6-B14, rac-2-chloro-N-[(2R,3R)-2-(1-methyl-1H-pyrazol-5-yl)-6-oxopiperidin-3-yl]propanamide] | 92.4
N#CC(=Cc1ccc(F)cc1)C(=O)NCCc1cccc(Cl)c1 [8-K06, N-[2-(3-chlorophenyl)ethyl]-2-cyano-3-(4-fluorophenyl)prop-2-enamide] | 49.6
C=CC(=O)NC(c1ccc(F)cc1)c1nccn1C (stereo not drawn) [2-N09, N-[(4-fluorophenyl)(1-methyl-1H-imidazol-2-yl)methyl]prop-2-enamide] | 45.3
C=CC(=O)NC(C)Cc1cccn1C (stereo not drawn) [3-M22, N-[1-(1-methyl-1H-pyrrol-2-yl)propan-2-yl]prop-2-enamide] | 70.2
N#CC(=Cc1cccc(O)c1)C(=O)NCc1ccco1 [9-F21, 2-cyano-N-[(furan-2-yl)methyl]-3-(3-hydroxyphenyl)prop-2-enamide] | 119
Cc1ccc(N2CCN(C(=O)C(C)Cl)CC2=O)o1 (stereo not drawn) [7-A16, 4-(2-chloropropanoyl)-1-(5-methylfuran-2-yl)piperazin-2-one] | 74.7
C=CC(=O)N(C)Cc1ccnn1CC [1-F07, N-[(1-ethyl-1H-pyrazol-5-yl)methyl]-N-methylprop-2-enamide] | 100
CC(C)NC(=O)C(C#N)=Cc1ccc(Cl)c([N+](=O)[O-])c1 [8-J08, 3-(4-chloro-3-nitrophenyl)-2-cyano-N-(propan-2-yl)prop-2-enamide] | 0.544
Cc1ccsc1-c1nnc(NC(=O)CCl)o1 [6-K03, 2-chloro-N-[5-(3-methylthiophen-2-yl)-1,3,4-oxadiazol-2-yl]acetamide] | 72.7
